Results taken from PubChem BioAssay AID330 (DTP/NCI, 2004).
Where “and” joins values, the source holds several entries; their conditions need not be identical. Equal values may be shown once. Toxic doses and inconclusive results are not listed.

Test system: P388 leukemia ip, CD2F1 mice, survival T/C
Experiment: NCI In Vivo Anticancer Drug Screen. Data for tumor model P388 Leukemia (intraperitoneal) in CD2F1 (CDF1) mice
Settings: endpoint: median survival time, higher = longer survival
Outline: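 Mice carrying the transplanted tumor received test compound or vehicle. Survival was recorded in each group, and the value is the treated-group measurement divided by that of the vehicle-treated control group.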

[1] = dose: 25.0 mg/kg/injection, schedule: Q01DX005 (ip), vehicle: saline with Tween-80
[2] = dose: 50.0 mg/kg/injection, schedule: Q01DX005 (ip), vehicle: saline with Tween-80
[3] = dose: 100.0 mg/kg/injection, schedule: Q01DX005 (ip), vehicle: saline with Tween-80

## c1cc[n+](Cc2c3ccccc3cc3c2ccc2ccccc23)cc1
dose: 6.25 mg/kg/injection, schedule: Q01DX005 (ip), vehicle: Klucel (hydroxypropylcellulose) (HPC)
  T/C: 112 % of control
dose: 12.5 mg/kg/injection, schedule: Q01DX005 (ip), vehicle: Klucel (hydroxypropylcellulose) (HPC)
  T/C: 112 % of control
dose: 25.0 mg/kg/injection, schedule: Q01DX005 (ip), vehicle: Klucel (hydroxypropylcellulose) (HPC)
  T/C: 110 % of control

## CN1CCC(C(=O)NNc2ccccc2)CC1
dose: 50.0 mg/kg/injection, schedule: Q01DX005 (ip), vehicle: saline
  T/C: 100 % of control
dose: 100.0 mg/kg/injection, schedule: Q01DX005 (ip), vehicle: saline
  T/C: 102 % of control
dose: 200.0 mg/kg/injection, schedule: Q01DX005 (ip), vehicle: saline
  T/C: 102 % of control

## CN1CCS(=O)(=O)C2CCCCC2C1=O (configuration not stated)
dose: 50.0 mg/kg/injection, schedule: Q01DX009 (ip), vehicle: saline with Tween-80
  T/C: 96 % of control
dose: 100.0 mg/kg/injection, schedule: Q01DX009 (ip), vehicle: saline with Tween-80
  T/C: 104 % of control
dose: 200.0 mg/kg/injection, schedule: Q01DX009 (ip), vehicle: saline with Tween-80
  T/C: 96 % of control

## Cc1c2oc3c(C)ccc(C(=O)NC4C(=O)NC(C(C)C)C(=O)N5CCCC5C(=O)N(C)CC(=O)N(C)C(C(C)C)C(=O)OC4C)c3nc-2c(C(=O)NC2C(=O)NC(C(C)C)C(=O)N3CCCC3C(=O)N(C)CC(=O)N(C)C(C(C)C)C(=O)OC2C)c(Cl)c1=O (configuration not stated)
dose: 0.05 mg/kg/injection, schedule: Q01DX009 (ip), vehicle: water
  T/C: 98 % of control
dose: 0.1 mg/kg/injection, schedule: Q01DX009 (ip), vehicle: water
  T/C: 96 % of control
dose: 0.2 mg/kg/injection, schedule: Q01DX009 (ip), vehicle: water
  T/C: 114 % of control
dose: 0.4 mg/kg/injection, schedule: Q01DX009 (ip), vehicle: water
  T/C: 106 % of control
dose: 0.8 mg/kg/injection, schedule: Q01DX009 (ip), vehicle: water
  T/C: 110 % of control
dose: 3.13 mg/kg/injection, schedule: Q01DX009 (ip), vehicle: water
  T/C: 150 % of control
dose: 6.25 mg/kg/injection, schedule: Q01DX009 (ip), vehicle: water
  T/C: 172 % of control
dose: 6.4 mg/kg/injection, schedule: Q01DX009 (ip), vehicle: water
  T/C: 171 % of control
dose: 12.5 mg/kg/injection, schedule: Q01DX009 (ip), vehicle: water
  T/C: 172 % of control and 243 % of control
dose: 25.0 mg/kg/injection, schedule: Q01DX009 (ip), vehicle: water
  T/C: 101 % of control and 256 % of control

## O=C(N/N=C\c1cccc2ccccc12)C(=O)N/N=C/c1cccc2ccccc12
dose: 12.5 mg/kg/injection, schedule: Q01DX005 (ip), vehicle: saline with Tween-80
  T/C: 93 % of control
[1]
  T/C: 91 % of control
[2]
  T/C: 94 % of control
[3]
  T/C: 87 % of control
dose: 200.0 mg/kg/injection, schedule: Q01DX005 (ip), vehicle: saline with Tween-80
  T/C: 91 % of control

## Cc1ccc(C2(c3ccccc3)OC3OC=CC32)cc1 (configuration not stated)
[1]
  T/C: 97 % of control
[2]
  T/C: 101 % of control
dose: 60.0 mg/kg/injection, schedule: Q01DX005 (ip), vehicle: saline with Tween-80
  T/C: 96 % of control
[3]
  T/C: 100 % of control
dose: 240.0 mg/kg/injection, schedule: Q01DX005 (ip), vehicle: saline with Tween-80
  T/C: 96 % of control

## COc1cc2c(cc1OC)C[N+]1(C)CCc3cc(OC)c(OC)cc3C1C2 (configuration not stated)
dose: 10.0 mg/kg/injection, schedule: Q01DX009 (ip), vehicle: saline
  T/C: 111 % of control
dose: 20.0 mg/kg/injection, schedule: Q01DX009 (ip), vehicle: saline
  T/C: 111 % of control

## COC1=C[C@@H](C)[C@@H]2C[C@H]3O[C@@H](OC4OC(CO)C(O)C(O)C4O)C[C@H]4C(C)=C(OC)C(=O)[C@H]([C@@]2(C)C1=O)[C@@]34C (some centres not stated)
dose: 4.0 mg/kg/injection, schedule: Q01DX005 (ip), vehicle: Klucel (hydroxypropylcellulose) (HPC)
  T/C: 96 % of control
dose: 8.0 mg/kg/injection, schedule: Q01DX005 (ip), vehicle: Klucel (hydroxypropylcellulose) (HPC)
  T/C: 94 % of control
dose: 16.0 mg/kg/injection, schedule: Q01DX005 (ip), vehicle: Klucel (hydroxypropylcellulose) (HPC)
  T/C: 103 % of control

## CN(C)NC(=O)c1ccc(C(=O)NN(C)C)cc1
dose: 50.0 mg/kg/injection, schedule: Q01DX009 (ip), vehicle: Klucel (hydroxypropylcellulose) (HPC)
  T/C: 108 % of control
dose: 100.0 mg/kg/injection, schedule: Q01DX009 (ip), vehicle: Klucel (hydroxypropylcellulose) (HPC)
  T/C: 108 % of control
dose: 200.0 mg/kg/injection, schedule: Q01DX009 (ip), vehicle: Klucel (hydroxypropylcellulose) (HPC)
  T/C: 113 % of control
